Like-named read-outs stand apart in the source and are kept apart here.

The assay concerns the target T1, Human TRPC6 (Homo sapiens, UniProt Q9Y210).
T1 construct: expressed in transfected cells
T1 sequence (Q9Y210 1-931): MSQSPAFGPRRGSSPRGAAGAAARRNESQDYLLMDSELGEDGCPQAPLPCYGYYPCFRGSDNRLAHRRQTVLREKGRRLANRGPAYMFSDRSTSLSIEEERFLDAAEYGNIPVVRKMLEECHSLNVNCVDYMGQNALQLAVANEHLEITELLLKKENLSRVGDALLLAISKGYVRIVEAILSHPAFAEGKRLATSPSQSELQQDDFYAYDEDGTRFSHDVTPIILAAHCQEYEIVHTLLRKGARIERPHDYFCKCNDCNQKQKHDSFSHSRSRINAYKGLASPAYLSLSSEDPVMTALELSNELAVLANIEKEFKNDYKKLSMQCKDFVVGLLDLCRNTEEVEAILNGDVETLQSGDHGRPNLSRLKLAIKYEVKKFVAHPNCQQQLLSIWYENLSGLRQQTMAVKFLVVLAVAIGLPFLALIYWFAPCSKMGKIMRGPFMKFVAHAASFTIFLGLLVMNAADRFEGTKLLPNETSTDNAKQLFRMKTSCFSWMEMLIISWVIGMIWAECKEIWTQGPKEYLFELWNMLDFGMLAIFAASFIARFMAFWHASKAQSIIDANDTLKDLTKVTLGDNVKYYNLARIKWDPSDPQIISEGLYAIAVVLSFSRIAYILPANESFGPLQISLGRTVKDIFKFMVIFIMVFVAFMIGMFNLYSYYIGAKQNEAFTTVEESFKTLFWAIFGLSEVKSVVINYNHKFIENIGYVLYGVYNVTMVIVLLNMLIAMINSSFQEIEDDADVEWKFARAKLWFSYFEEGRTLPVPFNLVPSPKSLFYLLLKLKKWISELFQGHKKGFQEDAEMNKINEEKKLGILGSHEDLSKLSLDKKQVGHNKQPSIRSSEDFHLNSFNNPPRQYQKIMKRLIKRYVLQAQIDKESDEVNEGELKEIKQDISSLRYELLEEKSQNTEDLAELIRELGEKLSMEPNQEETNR
Description: Evaluation of TRPC6 channel inhibitory activity (1), FLIPR Calcium 5 Assay Kit, OAG stimulation (Compound Nos. 1-1293). Format: cell-based. An outline of the steps:
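Calcium influx read by FLIPR fluorescence in cells stably expressing human TRPC6, dye-loaded 30 min. Compounds preincubated 20 min, then OAG stimulation at 30 μM final. Inhibition fitted by four-parameter logistic regression to give pIC50, reported as +/++/+++ categories.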

Where [1] appears, read: Human TRPC6 stably-expressing cells, OAG 30 μM, FLIPR Calcium 5 Assay Kit, read-out: Inhibitory activity (pIC50 class) (converted).

`Cn1nc(C2CC2)cc1Oc1cc(C#N)ccc1-c1ccc(C(=O)CN)cn1` [compound 923, 4-[5-(2-aminoacetyl)pyridin-2-yl]-3-(5-cyclopropyl-2-methylpyrazol-3-yl)oxybenzonitrile]: the IC50 under setting [1] was 10 to 1000 nM.

As to `Cc1nn(CC(F)F)cc1Oc1cc(C#N)ccc1-c1ncc(CCN)cn1` [compound 924, 4-[5-(2-aminoethyl)pyrimidin-2-yl]-3-[1-(2,2-difluoroethyl)-3-methylpyrazol-4-yl]oxybenzonitrile], under setting [1], the IC50 was 10 to 1000 nM.

Regarding `Cc1c(Oc2cc(C#N)ccc2-c2ncc(CCN)cn2)cnn1CC(F)F` [compound 925, 4-[5-(2-aminoethyl)pyrimidin-2-yl]-3-[1-(2,2-difluoroethyl)-5-methylpyrazol-4-yl]oxybenzonitrile], the IC50 under setting [1] was above 1000 nM.

Regarding `C#CCOc1cc(Oc2cc(C#N)ccc2-c2ncc(CCN)cn2)nc(C)n1` [compound 926, 4-[5-(2-aminoethyl)pyrimidin-2-yl]-3-(2-methyl-6-prop-2-ynoxypyrimidin-4-yl)oxybenzonitrile], the IC50 under setting [1] was above 1000 nM.

As for `N#Cc1ccc(-c2ncc(CCN)cn2)c(Oc2cnn(CC(F)F)c2)c1` [compound 927, 4-[5-(2-aminoethyl)pyrimidin-2-yl]-3-[1-(2,2-difluoroethyl)pyrazol-4-yl]oxybenzonitrile], the IC50 under setting [1] was 10 to 1000 nM.

`Cn1nc(-c2cncc(F)c2)cc1Oc1cc(C#N)ccc1-c1ncc(CN)cn1` [compound 928, 4-[5-(aminomethyl)pyrimidin-2-yl]-3-[5-(5-fluoropyridin-3-yl)-2-methylpyrazol-3-yl]oxybenzonitrile]: under setting [1], the IC50 is 10 to 1000 nM.

Consider `Cn1nc(Br)cc1Oc1cc(C#N)ccc1-c1ncc(CN)cn1` [compound 929, 4-[5-(aminomethyl)pyrimidin-2-yl]-3-(5-bromo-2-methylpyrazol-3-yl)oxybenzonitrile], for which the IC50 under setting [1] is above 1000 nM.

Consider `Cn1nc(-c2cncnc2)cc1Oc1cc(C#N)ccc1-c1ncc(CN)cn1` [compound 930, 4-[5-(aminomethyl)pyrimidin-2-yl]-3-(2-methyl-5-pyrimidin-5-ylpyrazol-3-yl)oxybenzonitrile], for which the IC50 under setting [1] was 10 to 1000 nM.

On to `Cn1nc(-c2ccncn2)cc1Oc1cc(C#N)ccc1-c1ncc(CN)cn1` [compound 932, 4-[5-(aminomethyl)pyrimidin-2-yl]-3-(2-methyl-5-pyrimidin-4-ylpyrazol-3-yl)oxybenzonitrile], for which, under setting [1], the IC50 was below 10 nM.

As to `Cc1nc(-c2cc(Oc3cc(C#N)ccc3-c3ncc(CN)cn3)n(C)n2)cn1C` [compound 933, 4-[5-(aminomethyl)pyrimidin-2-yl]-3-[5-(1,2-dimethylimidazol-4-yl)-2-methylpyrazol-3-yl]oxybenzonitrile], the IC50 under setting [1] is above 1000 nM.

Consider `Cn1nc(-c2cccnn2)cc1Oc1cc(C#N)ccc1-c1ncc(CN)cn1` [compound 934, 4-[5-(aminomethyl)pyrimidin-2-yl]-3-(2-methyl-5-pyridazin-3-ylpyrazol-3-yl)oxybenzonitrile], for which, under setting [1], the IC50 is 10 to 1000 nM.

`Cn1nc(-c2cncs2)cc1Oc1cc(C#N)ccc1-c1ncc(CN)cn1` [compound 935, 4-[5-(aminomethyl)pyrimidin-2-yl]-3-[2-methyl-5-(1,3-thiazol-5-yl)pyrazol-3-yl]oxybenzonitrile]: the IC50 under setting [1] was below 10 nM.

On to `Cn1ccnc1-c1cc(Oc2cc(C#N)ccc2-c2ncc(CN)cn2)n(C)n1` [compound 936, 4-[5-(aminomethyl)pyrimidin-2-yl]-3-[2-methyl-5-(1-methylimidazol-2-yl)pyrazol-3-yl]oxybenzonitrile], for which the IC50 under setting [1] is 10 to 1000 nM.

As to `Cc1nn(CC(C)(C)C)cc1Oc1cc(C#N)ccc1-c1ncc(CCN)cn1` [compound 937, 4-[5-(2-aminoethyl)pyrimidin-2-yl]-3-[1-(2,2-dimethylpropyl)-3-methylpyrazol-4-yl]oxybenzonitrile], the IC50 under setting [1] is below 10 nM.

For the compound `Cc1c(Oc2cc(C#N)ccc2-c2ncc(CCN)cn2)cnn1CC(C)(C)C` [compound 938, 4-[5-(2-aminoethyl)pyrimidin-2-yl]-3-[1-(2,2-dimethylpropyl)-5-methylpyrazol-4-yl]oxybenzonitrile], the IC50 under setting [1] is 10 to 1000 nM.

For `Cc1nn(CC(C)C)c(C)c1Oc1cc(C#N)ccc1-c1ncc(CCN)cn1` [compound 939, 4-[5-(2-aminoethyl)pyrimidin-2-yl]-3-[3,5-dimethyl-1-(2-methylpropyl)pyrazol-4-yl]oxybenzonitrile], the IC50 under setting [1] was 10 to 1000 nM.

As to `Cc1nn(CC(F)F)c(C)c1Oc1cc(C#N)ccc1-c1ncc(CCN)cn1` [compound 940, 4-[5-(2-aminoethyl)pyrimidin-2-yl]-3-[1-(2,2-difluoroethyl)-3,5-dimethylpyrazol-4-yl]oxybenzonitrile], the IC50 under setting [1] was above 1000 nM.

Turning to `Cc1nn(-c2ccccn2)c(C)c1Oc1cc(C#N)ccc1-c1ncc(CCN)cn1` [compound 941, 4-[5-(2-aminoethyl)pyrimidin-2-yl]-3-(3,5-dimethyl-1-pyridin-2-ylpyrazol-4-yl)oxybenzonitrile], under setting [1], the IC50 is above 1000 nM.

Take `Cc1nn(C(C)C)c(C)c1Oc1cc(C#N)ccc1-c1ncc(CCN)cn1` [compound 942, 4-[5-(2-aminoethyl)pyrimidin-2-yl]-3-(3,5-dimethyl-1-propan-2-ylpyrazol-4-yl)oxybenzonitrile]: under setting [1], the IC50 was above 1000 nM.

Turning to `Cc1nn(CC(F)(F)F)c(C)c1Oc1cc(C#N)ccc1-c1ncc(CCN)cn1` [compound 943, 4-[5-(2-aminoethyl)pyrimidin-2-yl]-3-[3,5-dimethyl-1-(2,2,2-trifluoroethyl)pyrazol-4-yl]oxybenzonitrile], the IC50 under setting [1] is above 1000 nM.

For `Cn1nc(N2C3CCC2COC3)cc1Oc1cc(C#N)ccc1-c1ncc(CN)cn1` [compound 944, 4-[5-(aminomethyl)pyrimidin-2-yl]-3-[2-methyl-5-(3-oxa-8-azabicyclo[3.2.1]octan-8-yl)pyrazol-3-yl]oxybenzonitrile], the IC50 lay within 10 to 1000 nM.

Turning to `Cn1nc(-c2ccnn2C)cc1Oc1cc(C#N)ccc1-c1ncc(CN)cn1` [compound 945, 4-[5-(aminomethyl)pyrimidin-2-yl]-3-[2-methyl-5-(2-methylpyrazol-3-yl)pyrazol-3-yl]oxybenzonitrile], under setting [1], the IC50 is below 10 nM.

With `Cn1ccc(-c2cc(Oc3cc(C#N)ccc3-c3ncc(CN)cn3)n(C)n2)n1` [compound 946, 4-[5-(aminomethyl)pyrimidin-2-yl]-3-[2-methyl-5-(1-methylpyrazol-3-yl)pyrazol-3-yl]oxybenzonitrile], the IC50 under setting [1] is 10 to 1000 nM.

Regarding `Cn1cc(-c2cc(Oc3cc(C#N)ccc3-c3ncc(CN)cn3)n(C)n2)cn1` [compound 947, 4-[5-(aminomethyl)pyrimidin-2-yl]-3-[2-methyl-5-(1-methylpyrazol-4-yl)pyrazol-3-yl]oxybenzonitrile], the IC50 under setting [1] is above 1000 nM.

`Cn1nc(-c2ccncn2)cc1Oc1cc(C#N)ccc1-c1ncc(CCN)cn1` [compound 949, 4-[5-(2-aminoethyl)pyrimidin-2-yl]-3-(2-methyl-5-pyrimidin-4-ylpyrazol-3-yl)oxybenzonitrile]: under setting [1], the IC50 was below 10 nM.

As to `Cn1nc(-c2cnccn2)cc1Oc1cc(C#N)ccc1-c1ncc(CCN)cn1` [compound 950, 4-[5-(2-aminoethyl)pyrimidin-2-yl]-3-(2-methyl-5-pyrazin-2-ylpyrazol-3-yl)oxybenzonitrile], the IC50 under setting [1] was below 10 nM.

As for `Cn1nc(-c2cncs2)cc1Oc1cc(C#N)ccc1-c1ncc(CCN)cn1` [compound 951, 4-[5-(2-aminoethyl)pyrimidin-2-yl]-3-[2-methyl-5-(1,3-thiazol-5-yl)pyrazol-3-yl]oxybenzonitrile], under setting [1], the IC50 is below 10 nM.

In the case of `Cn1nc(-c2cscn2)cc1Oc1cc(C#N)ccc1-c1ncc(CCN)cn1` [compound 952, 4-[5-(2-aminoethyl)pyrimidin-2-yl]-3-[2-methyl-5-(1,3-thiazol-4-yl)pyrazol-3-yl]oxybenzonitrile], the IC50 under setting [1] was below 10 nM.

Regarding `CCc1nn(CC(C)C)cc1Oc1cc(C#N)ccc1-c1ncc(CCN)cn1` [compound 953, 4-[5-(2-aminoethyl)pyrimidin-2-yl]-3-[3-ethyl-1-(2-methylpropyl)pyrazol-4-yl]oxybenzonitrile], under setting [1], the IC50 was below 10 nM.

For the compound `CCc1c(Oc2cc(C#N)ccc2-c2ncc(CCN)cn2)cnn1CC(C)C` [compound 954, 4-[5-(2-aminoethyl)pyrimidin-2-yl]-3-[5-ethyl-1-(2-methylpropyl)pyrazol-4-yl]oxybenzonitrile], under setting [1], the IC50 is 10 to 1000 nM.

For the origin of these results see patent US20230167073A1 (Teijin Pharma Limited, priority 2020, published 2023).
